Source: the supplement of paper PMC10307832

How the values were obtained:
Experiment in all cases: relative viability (nuclei count vs DMSO), 5 days (fraction); higher = more cells survive
[1] = compound: C1CC(C1)(C(=O)O)C(=O)O.[NH2-].[NH2-].[Pt+2] [Carboplatin]
Method in brief: (§1)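 Viability here means nuclei in treated wells divided by nuclei in vehicle wells, reported as the median across plates. Only plates with control CV below 25% and at least one doubling passed. Lung cancer cell lines in 1536-well plates were exposed to five √10-spaced library-drug doses for 5 days and counted from 4× Hoechst images in MetaXpress.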

[2] = compound: CC[C@H](C)N1C=C(C2=C(C=C(C=C21)C3=CN=C(C=C3)N4CCNCC4)C(=O)NCC5=C(C=C(NC5=O)C)C)C [GSK126]
Method in brief: as §1

[3] = compound: NS(=O)(=O)OC[C@@H]1C[C@@H](n2ccc3c(N[C@H]4CCc5ccccc54)ncnc32)C[C@@H]1O [MLN4924]
Method in brief: as §1

[4] = compound: CC[C@H](C)N1C=C(C2=C(C=C(C=C21)C3=CN=C(C=C3)N4CCNCC4)C(=O)NCC5=C(C=C(NC5=O)C)C)C [GSK126] + O=C(CCCCCCC(=O)Nc1ccccc1)NO [Vorinostat] (partner 1 µM)
Method in brief: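 Lung cancer cell lines, seeded in 1536-well plates, were treated the following day by pin tool with a single drug or with five library-drug doses (not always all listed) in √10 steps on top of a fixed anchor-drug dose. Cells were fixed and nuclei stained in one step after 5 days, and nuclei were counted. Relative viability is the nuclei count for treated wells divided by that for vehicle wells, reported as medians of duplicate plates.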

Cell Line: UMC-11
- relative viability ([1]; 0.08 µM): 0.982
- relative viability ([1]; 0.253 µM): 0.996
- relative viability ([1]; 0.8 µM): 1.01
- relative viability ([1]; 2.53 µM): 0.923
- relative viability ([1]; 8 µM): 0.767
- relative viability ([2]; 0.08 µM): 1.09
- relative viability ([2]; 0.253 µM): 0.982
- relative viability ([2]; 0.8 µM): 1.02
- relative viability ([2]; 2.53 µM): 1.01
- relative viability ([2]; 8 µM): 1.11
- relative viability ([3]; 0.04 µM): 0.678
- relative viability ([3]; 0.1265 µM): 0.463
- relative viability ([3]; 0.4 µM): 0.383
- relative viability ([3]; 1.265 µM): 0.189
- relative viability ([3]; 4 µM): 0.19
- relative viability ([4]; first compound 0.08 µM): 0.409
- relative viability ([4]; first compound 0.253 µM): 0.381
- relative viability ([4]; first compound 0.8 µM): 0.356
- relative viability ([4]; first compound 2.53 µM): 0.459
- relative viability ([4]; first compound 8 µM): 0.341
